Read-outs that look alike come from different tables or passages of the source.
Key:
[1] = target: T1, GPI, Substance P induced muscle contraction (Cavia porcellus, UniProt P30547); assay: GPI assay, Substance P antagonist; assay type: cell-based; details: in the presence of 1 μM naloxone, n = 4
MVD (δ) = MVD (δ) (Mus musculus, UniProt P32300); details: read-out: MVD (δ) opioid agonist IC50; ref 3a; cited from earlier work
GPI (μ) = GPI (μ) (Cavia porcellus, UniProt P97266); details: read-out: GPI (μ) opioid agonist IC50; ref 3a; cited from earlier work
human NK1 receptors = human NK1 receptors (Homo sapiens, UniProt P25103); details: ratio; ref 3a; cited from earlier work
rat NK1 receptors = rat NK1 receptors (Rattus norvegicus, UniProt P14600); details: read-out: rNK1 Ki; [3H]Substance P; ref 3a; cited from earlier work
[2] = target: T1, GPI, Substance P induced muscle contraction; details: 1 μM naloxone; ref 3a; cited from earlier work
rodent model = details: ref 2a, cited from earlier work

T1 sequence (P30547 whole entry): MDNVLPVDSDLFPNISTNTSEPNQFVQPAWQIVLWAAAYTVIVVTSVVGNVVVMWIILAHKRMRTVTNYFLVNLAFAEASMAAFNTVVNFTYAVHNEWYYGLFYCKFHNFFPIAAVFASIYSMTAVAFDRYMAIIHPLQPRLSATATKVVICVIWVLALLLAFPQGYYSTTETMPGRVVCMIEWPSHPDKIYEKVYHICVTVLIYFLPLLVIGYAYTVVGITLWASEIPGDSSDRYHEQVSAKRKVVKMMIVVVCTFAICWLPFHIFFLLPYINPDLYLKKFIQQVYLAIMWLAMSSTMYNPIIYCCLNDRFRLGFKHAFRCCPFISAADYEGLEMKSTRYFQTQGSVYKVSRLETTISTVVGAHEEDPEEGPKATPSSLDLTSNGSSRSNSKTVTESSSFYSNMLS
MVD (δ), sequence (P32300 whole entry): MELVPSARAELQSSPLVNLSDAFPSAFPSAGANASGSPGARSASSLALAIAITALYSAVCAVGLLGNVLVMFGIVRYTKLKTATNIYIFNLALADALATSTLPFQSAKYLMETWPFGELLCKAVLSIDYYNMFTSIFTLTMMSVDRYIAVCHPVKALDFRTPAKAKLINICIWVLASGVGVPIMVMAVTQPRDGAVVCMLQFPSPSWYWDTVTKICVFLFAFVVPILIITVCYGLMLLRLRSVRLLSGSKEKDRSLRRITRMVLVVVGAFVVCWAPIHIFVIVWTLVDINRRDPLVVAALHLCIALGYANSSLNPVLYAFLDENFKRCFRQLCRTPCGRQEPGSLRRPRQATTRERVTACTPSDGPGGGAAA
human NK1 receptors, sequence (P25103 whole entry): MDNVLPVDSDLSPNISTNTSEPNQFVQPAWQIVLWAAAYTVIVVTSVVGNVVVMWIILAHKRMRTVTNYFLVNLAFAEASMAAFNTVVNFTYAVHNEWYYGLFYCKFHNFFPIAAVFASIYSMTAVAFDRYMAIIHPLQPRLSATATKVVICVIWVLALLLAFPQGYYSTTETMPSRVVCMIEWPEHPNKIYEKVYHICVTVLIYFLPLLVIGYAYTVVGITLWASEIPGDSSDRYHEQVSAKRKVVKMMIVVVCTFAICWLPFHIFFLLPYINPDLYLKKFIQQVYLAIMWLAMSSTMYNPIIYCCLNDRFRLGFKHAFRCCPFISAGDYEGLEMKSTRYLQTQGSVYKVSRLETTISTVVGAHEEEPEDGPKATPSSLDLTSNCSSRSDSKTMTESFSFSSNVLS
rat NK1 receptors, sequence (P14600 whole entry): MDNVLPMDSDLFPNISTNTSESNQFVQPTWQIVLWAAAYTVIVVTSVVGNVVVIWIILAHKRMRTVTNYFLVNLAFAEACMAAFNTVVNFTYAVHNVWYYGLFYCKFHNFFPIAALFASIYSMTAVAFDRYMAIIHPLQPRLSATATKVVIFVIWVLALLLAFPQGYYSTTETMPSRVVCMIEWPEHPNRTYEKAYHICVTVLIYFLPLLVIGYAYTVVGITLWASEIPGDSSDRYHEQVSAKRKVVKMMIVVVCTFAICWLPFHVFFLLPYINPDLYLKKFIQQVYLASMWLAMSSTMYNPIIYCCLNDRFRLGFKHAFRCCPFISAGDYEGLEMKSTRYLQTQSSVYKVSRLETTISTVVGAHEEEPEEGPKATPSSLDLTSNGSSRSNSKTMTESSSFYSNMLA

Row | Molecule | GPI Substance P antagonist Ke [1] [nM] | IC50 (MVD (δ)) [nM] | IC50 (GPI (μ)) [nM] | Ki(hNK1)/Ki(rNK1) (human NK1 receptors) | Ki (rat NK1 receptors) [nM] | GPI Substance P antagonist Ke [2] [nM] | opioid-induced tolerance (rodent model) | reward liability (rodent model) | effect on neuropathic pain (rodent model; rodent model)
1 | CC(=O)N[C@@H](Cc1c[nH]c2ccccc12)C(=O)OCc1cc(C(F)(F)F)cc(C(F)(F)F)c1 [L-732,138] | 250 | – | – | – | – | – | – | – | –
2 | Tyr^1-DAla^2-Gly^3-Phe^4-Met^5-Pro^6-Leu^7-Trp^8-O-[3′,5′-Bzl(CF3)2] [compound 1] | – | 22 | 360 | 3.5 | 0.29 | 25 | no sign of opioid-induce tolerance | no development of reward liability | reverse neuropathic pain
